Laboratory results: PubChem BioAssay (NCI)
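Method: 48-hour compound exposure of cells in 96-well plates, five concentrations, linear interpolation of endpoints. GI50 is the concentration that inhibits growth by half. The concentration for full growth arrest is given as TGI.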

Tests used:
Test in all cases: inhibition of tumour cell growth, NCI panel, 48 h
[1] = system: NCI-H23 lung
[2] = system: HOP-92 NSCLC
[3] = system: HT29 colon
[4] = system: SF-539 CNS
[5] = system: KM12 colon
[6] = system: NCI-H522 lung
[7] = system: SF-295 CNS
[8] = system: SNB-19 CNS
[9] = system: COLO 205 colon
[10] = system: UO-31 renal

Row | Compound | TGI [1] [µM] | TGI [2] [µM] | TGI [3] [µM] | TGI [4] [µM] | TGI [5] [µM] | TGI [6] [µM] | TGI [7] [µM] | TGI [8] [µM] | TGI [9] [µM] | GI50 [1] [µM] | GI50 [2] [µM] | GI50 [3] [µM] | GI50 [4] [µM] | GI50 [5] [µM] | GI50 [6] [µM] | GI50 [7] [µM] | GI50 [8] [µM] | GI50 [10] [µM] | TGI [10] [µM]
1 | CC(=O)OCc1c(O)c2c([nH]c1=O)CCc1ccccc1-2 | 218 | 182 | 311 | 177 | 109 | 84.6 | 274 | > 350 | 112 | – | – | – | – | – | – | – | – | – | –
2 | O=C(O)/C=C/c1ccc(Oc2ccccc2C(=O)O)o1 | > 10 | > 10 | > 10 | > 10 | > 10 | > 10 | > 10 | > 10 | > 10 | – | – | – | – | – | – | – | – | – | –
3 | C(=N\Nc1ncc(-c2cc3cc4c(cc3o2)OCO4)s1)/c1ccco1 | 4.22 | 8.98 | 7.62 | 3.96 | 5.14 | 2.97 | 11.5 | 23.1 | – | 1.51 | 1.94 | 2.99 | 1.58 | 1.85 | 0.625 | 2.78 | 4.73 | 0.59 | 3.68
4 | COc1ccc(NC(=O)Oc2ccc3c(C)cc(=O)oc3c2)c(OC)c1 (tested in a mixture with another compound) | > 100 | – | > 100 | > 100 | > 100 | > 100 | > 100 | > 100 | > 100 | – | – | – | – | – | – | – | – | – | > 100
5 | NC(=O)CC1OC(=O)Cc2cc3c(c(O)c21)C(=O)c1c(O)cccc1C3=O (stereo not drawn) | > 100 | > 100 | > 100 | > 100 | – | > 100 | > 100 | > 100 | > 100 | – | – | – | – | – | – | – | – | – | > 100
6 | CC(=O)OC12C(C)=C(C)C(=O)N1c1ccccc1N2C(C)=O (stereo not drawn) | > 100 | > 100 | > 100 | – | > 100 | > 100 | > 100 | > 100 | > 100 | – | – | – | – | – | – | – | – | – | > 100
7 | Cc1ccc(S(=O)(=O)ON2C(=O)c3cccc4cc([N+](=O)[O-])cc(c34)C2=O)cc1 | > 100 | > 100 | 79.3 | – | > 100 | > 100 | > 100 | > 100 | > 100 | – | – | – | – | – | – | – | – | – | > 100
8 | CC1=CCC2CC1C(C(=O)c1c[nH]c3ccccc13)=NC2(C)C (stereo not drawn) | > 100 | – | > 100 | > 100 | > 100 | > 100 | – | > 100 | > 100 | – | – | – | – | – | – | – | – | – | > 100
9 | CN(C)c1ccc(/C=c2\sc3nnc(-c4ccco4)n3c2=O)cc1 | > 100 | > 100 | – | > 100 | > 100 | > 100 | > 100 | > 100 | > 100 | – | – | – | – | – | – | – | – | – | > 100
10 | COc1ccc(/C=C/c2cc(OC)c(OC(C)=O)c(OC)c2)cc1 | 61.4 | 65.1 | > 100 | – | – | 46.1 | – | > 100 | > 100 | – | – | – | – | – | – | – | – | – | 49.3
11 | CSC(=O)C[C@@]12O[C@@H]([C@@H](C)C3CCC4[C@@H]5C(O)CC6=CC(=O)C=C[C@]6(C)C5CC[C@@]43C)C[C@](C)(O1)C(C)(C)O2 (stereo partly drawn) | – | 23 | 27.6 | 30.7 | 32.9 | 30 | 28.6 | 33.8 | – | – | – | – | – | – | – | – | – | – | 24.8
12 | O=C1Nc2c(Cl)cc(Cl)cc2/C1=N/N=C/c1ccco1 | 75.9 | > 100 | > 100 | > 100 | > 100 | – | > 100 | > 100 | 73.3 | – | – | – | – | – | – | – | – | – | 55.4
